In PubChem BioAssay AID192 (DTP/NCI, 2004):
Where “and” joins values, the source holds several entries; their conditions need not be identical. Equal values may be shown once. Toxic doses and inconclusive results are not listed. Bridge positions count the residues as written; N and C are the ends. Square brackets hold non-standard residues; d marks the D form. Peptide text beside a SMILES is read from it. NMeV = CN[CH](C(=O)O)C(C)C; Sar = CNCC(=O)O

Tested on: BDF1 mice, B16 melanoma ip, median survival T/C
Assay: NCI In Vivo Anticancer Drug Screen. Data for tumor model B16 Melanoma (intraperitoneal) in B6D2F1 (BDF1) mice
Conditions: endpoint: median survival time, higher = longer survival
Procedure, shortened: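 Survival or tumor size is measured after treatment of tumor-bearing mice and normalised to the vehicle-treated control group.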

[1] = dose: 12.5 mg/kg/injection, schedule: Q01DX009 (ip), vehicle: saline
[2] = dose: 25.0 mg/kg/injection, schedule: Q01DX009 (ip), vehicle: saline
[3] = dose: 50.0 mg/kg/injection, schedule: Q01DX009 (ip), vehicle: saline
[4] = dose: 100.0 mg/kg/injection, schedule: Q01DX009 (ip), vehicle: Klucel (hydroxypropylcellulose) (HPC)
[5] = dose: 200.0 mg/kg/injection, schedule: Q01DX009 (ip), vehicle: Klucel (hydroxypropylcellulose) (HPC)
[6] = dose: 400.0 mg/kg/injection, schedule: Q01DX009 (ip), vehicle: Klucel (hydroxypropylcellulose) (HPC)
[7] = dose: 100.0 mg/kg/injection, schedule: Q01DX009 (ip), vehicle: saline
[8] = dose: 200.0 mg/kg/injection, schedule: Q01DX009 (ip), vehicle: saline
[9] = dose: 12.5 mg/kg/injection, schedule: Q01DX009 (ip), vehicle: saline with Tween-80
[10] = dose: 25.0 mg/kg/injection, schedule: Q01DX009 (ip), vehicle: saline with Tween-80
[11] = dose: 50.0 mg/kg/injection, schedule: Q01DX009 (ip), vehicle: saline with Tween-80
[12] = dose: 100.0 mg/kg/injection, schedule: Q01DX009 (ip), vehicle: saline with Tween-80
[13] = dose: 12.5 mg/kg/injection, schedule: Q01DX009 (ip), vehicle: Klucel (hydroxypropylcellulose) (HPC)
[14] = dose: 25.0 mg/kg/injection, schedule: Q01DX009 (ip), vehicle: Klucel (hydroxypropylcellulose) (HPC)

In the case of `COc1cccc2c1C(=O)c1c(O)c3c(c(O)c1C2=O)C[C@@](O)(C(=O)COC(=O)CCCCC(=O)O)C[C@@H]3OC1CC(NC(=O)C(F)(F)F)C(O)C(C)O1` (some centres undefined), the T/C (dose: 18.75 mg/kg/injection, schedule: Q01DX001 (ip), vehicle: other) is reported as 175 % of control, the T/C (dose: 37.5 mg/kg/injection, schedule: Q01DX001 (ip), vehicle: other) is reported as 168 % of control and 205 % of control and the T/C (dose: 75.0 mg/kg/injection, schedule: Q01DX001 (ip), vehicle: other) is reported as 205 % of control and 271 % of control. For the same molecule, the T/C (dose: 150.0 mg/kg/injection, schedule: Q01DX001 (ip), vehicle: other) was 150 % of control.
`O=C1C(N2CCN(CCO)CC2)=C(N2CC2)C(=O)C(N2CCN(CCO)CC2)=C1N1CC1` was tested, and the T/C (dose: 0.25 mg/kg/injection, schedule: Q01DX009 (ip), vehicle: saline) was 122 % of control, the T/C (dose: 0.5 mg/kg/injection, schedule: Q01DX009 (ip), vehicle: saline) was 122 % of control and the T/C (dose: 1.0 mg/kg/injection, schedule: Q01DX009 (ip), vehicle: saline) was 109 % of control.
For `CCN(CC)CCNCCN`, the T/C [1] was 94 % of control, the T/C [2] was 97 % of control and the T/C [3] was 94 % of control.
With `Cc1c(Cl)cccc1NC(=O)c1cccc(C(=O)Nc2cccc(Cl)c2C)c1` the T/C [4] was 106 % of control, the T/C [5] was 103 % of control and the T/C [6] was 93 % of control.
In the case of `NCC(=O)c1ccc(O)c(O)c1`, the T/C [7] is reported as 100 % of control, the T/C [8] is reported as 110 % of control and the T/C (dose: 400.0 mg/kg/injection, schedule: Q01DX009 (ip), vehicle: saline) is reported as 120 % of control.
For `COc1ccc(/C(C)=N\NC(=O)c2ccccc2)cc1`, the T/C (dose: 50.0 mg/kg/injection, schedule: Q04DX003 (ip), vehicle: Klucel (hydroxypropylcellulose) (HPC)) was 95 % of control, the T/C (dose: 100.0 mg/kg/injection, schedule: Q04DX003 (ip), vehicle: Klucel (hydroxypropylcellulose) (HPC)) was 102 % of control and the T/C (dose: 200.0 mg/kg/injection, schedule: Q04DX003 (ip), vehicle: Klucel (hydroxypropylcellulose) (HPC)) was 87 % of control.
In the case of `COc1cccc2c1C(=O)c1c(O)c3c(c(O)c1C2=O)C[C@@](O)(C(C)=O)C[C@@H]3OC1CC(N2CCC(OC)CC2)C(O)C(C)O1` (some centres undefined), the T/C (dose: 1.56 mg/kg/injection, schedule: Q01DX001 (ip), vehicle: water) is reported as 123 % of control and the T/C (dose: 6.25 mg/kg/injection, schedule: Q01DX001 (ip), vehicle: water) is reported as 162 % of control.
For `Cn1nc(-c2ccccc2)nc1[N+](=O)[O-]`, the T/C [9] was 100 % of control, the T/C [10] was 96 % of control and the T/C [11] was 106 % of control. For the same molecule, the T/C [12] was 86 % of control.
For `CCOC(=O)C(C(=O)OCC)=C(C)C`, the T/C [2] was 123 % of control, the T/C [3] was 113 % of control and the T/C [7] was 110 % of control. For the same molecule, the T/C [8] was 94 % of control.
With `COc1ccc2cc1Oc1ccc(cc1)C[C@H]1c3cc(c(OC)cc3CCN1C)Oc1c(OC)c(OC)cc3c1[C@H](C2)N(C)CC3` the T/C (dose: 12.5 mg/kg/injection, schedule: Q01DX009 (ip), vehicle: other) was 109 % of control, the T/C [9] was 106 % of control and 108 % of control and the T/C [1] was 97 % of control. The T/C (dose: 12.5 mg/kg/injection, schedule: Q04DX003 (ip), vehicle: saline) was 94 % of control, the T/C (dose: 25.0 mg/kg/injection, schedule: Q01DX009 (ip), vehicle: other) was 106 % of control and the T/C [10] was 106 % of control and 115 % of control. For the same molecule, the T/C [2] was 100 % of control, the T/C (dose: 25.0 mg/kg/injection, schedule: Q04DX003 (ip), vehicle: saline) was 108 % of control and the T/C (dose: 50.0 mg/kg/injection, schedule: Q01DX009 (ip), vehicle: other) was 102 % of control. For the same molecule, the T/C [11] was 94 % of control and 113 % of control, the T/C [3] was 105 % of control and the T/C (dose: 50.0 mg/kg/injection, schedule: Q04DX003 (ip), vehicle: saline) was 97 % of control. The T/C [12] was 89 % of control and 101 % of control and 109 % of control and the T/C (dose: 100.0 mg/kg/injection, schedule: Q04DX003 (ip), vehicle: saline) was 100 % of control.
For `CCC(CC)CC1CN2CCc3cc(OC)c(OC)cc3C2CC1(O)CC` (centres undefined), the T/C (dose: 3.12 mg/kg/injection, schedule: Q01DX009 (ip), vehicle: Klucel (hydroxypropylcellulose) (HPC)) was 102 % of control, the T/C (dose: 6.25 mg/kg/injection, schedule: Q01DX009 (ip), vehicle: Klucel (hydroxypropylcellulose) (HPC)) was 102 % of control and the T/C [13] was 102 % of control. For the same molecule, the T/C [14] was 106 % of control.
`OCC1OC(n2cnc3c(=S)nc[nH]c32)C(O)C1O` (centres undefined) was tested, and the T/C (dose: 12.5 mg/kg/injection, schedule: Q01DX009 (ip), vehicle: saline sonified) was 102 % of control, the T/C (dose: 25.0 mg/kg/injection, schedule: Q01DX009 (ip), vehicle: saline sonified) was 105 % of control and the T/C (dose: 50.0 mg/kg/injection, schedule: Q01DX009 (ip), vehicle: saline sonified) was 105 % of control. The T/C [11] was 104 % of control, the T/C (dose: 100.0 mg/kg/injection, schedule: Q01DX009 (ip), vehicle: saline sonified) was 95 % of control and 100 % of control and the T/C [12] was 104 % of control. The T/C (dose: 200.0 mg/kg/injection, schedule: Q01DX009 (ip), vehicle: saline sonified) was 102 % of control and the T/C (dose: 200.0 mg/kg/injection, schedule: Q01DX009 (ip), vehicle: saline with Tween-80) was 100 % of control.
In the case of `O=S(=O)(SC(S(=O)(=O)c1ccccc1)S(=O)(=O)c1ccccc1)c1ccccc1`, the T/C [13] is reported as 99 % of control, the T/C [14] is reported as 99 % of control and the T/C (dose: 50.0 mg/kg/injection, schedule: Q01DX009 (ip), vehicle: Klucel (hydroxypropylcellulose) (HPC)) is reported as 105 % of control. For the same molecule, the T/C [4] was 107 % of control and the T/C [5] was 90 % of control.
In the case of `CCCCCCCCC(=O)N1CC(C)OC(C)C1` (centres undefined), the T/C [4] is reported as 103 % of control, the T/C [5] is reported as 89 % of control and the T/C [6] is reported as 94 % of control.
With `CN1CCC(CO)C1` (centres undefined) the T/C (dose: 6.25 mg/kg/injection, schedule: Q01DX009 (ip), vehicle: water) was 99 % of control, the T/C (dose: 12.5 mg/kg/injection, schedule: Q01DX009 (ip), vehicle: water) was 109 % of control and the T/C (dose: 25.0 mg/kg/injection, schedule: Q01DX009 (ip), vehicle: water) was 108 % of control. For the same molecule, the T/C [3] was 100 % of control, the T/C (dose: 50.0 mg/kg/injection, schedule: Q01DX009 (ip), vehicle: water) was 103 % of control and the T/C [7] was 97 % of control. For the same molecule, the T/C [8] was 91 % of control.
`CC(C)C1NC(=O)C(N)C(C)OC(=O)C(C(C)C)N(C)C(=O)CN(C)C(=O)C2CCCN2C1=O` (centres undefined) (tested in a mixture with another compound) (H-TVP[Sar][NMeV]; ester 1-C; configuration not given here) was tested, and the T/C (dose: 0.22 mg/kg/injection, schedule: Q01DX009 (ip), vehicle: water) was 156 % of control, the T/C (dose: 25.0 micrograms/kg/injection, schedule: Q01DX009 (ip), vehicle: saline + alcohol) was 107 % of control and the T/C (dose: 50.0 micrograms/kg/injection, schedule: Q01DX009 (ip), vehicle: saline + alcohol) was 122 % of control. The T/C (dose: 75.0 micrograms/kg/injection, schedule: Q04DX003 (ip), vehicle: saline + alcohol) was 107 % of control and 114 % of control, the T/C (dose: 150.0 micrograms/kg/injection, schedule: Q04DX003 (ip), vehicle: saline + alcohol) was 116 % of control and the T/C (dose: 200.0 micrograms/kg/injection, schedule: Q01DX009 (ip), vehicle: saline + alcohol) was 150 % of control. For the same molecule, the T/C (dose: 300.0 micrograms/kg/injection, schedule: Q04DX003 (ip), vehicle: saline + alcohol) was 100 % of control, the T/C (dose: 400.0 micrograms/kg/injection, schedule: Q01DX009 (ip), vehicle: saline + alcohol) was 124 % of control and the T/C (dose: 1200.0 micrograms/kg/injection, schedule: Q04DX003 (ip), vehicle: saline + alcohol) was 93 % of control and 107 % of control.
